Literature values in article PMC13603578, “Biopriming with Schizophyllum commune Polysaccharides Modulates Antioxidant and Biochemical Responses in Pisum sativum L. Seedlings” (Antioxidants, 2026).

Parameters: method as in PMID 26205049
Conditions: under the tested conditions

Substance: liquiritigenin
- DPPH radical-scavenging inhibition: exceeding 65%
